Measured values: ChEMBL document CHEMBL1201862, “PubChem BioAssay data set” (2004)
Calls of active or inactive are those of the source.

Tests used:
[1] = biological target: T1, Heat shock factor protein 1 (Mus musculus, UniProt P38532); assay: decrease of HSF1-responsive luciferase luminescence – cell-based, NIH3T3, dose retest, confirmation (AID 2382); type: functional;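 also: NIH3T3 fibroblasts with HSF1-driven luciferase reporter stressed by proteasome inhibitor MG132; luminescence from HSF1-driven luciferase expression after 8 hours of MG132 stress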
T1 sequence (P38532 whole entry): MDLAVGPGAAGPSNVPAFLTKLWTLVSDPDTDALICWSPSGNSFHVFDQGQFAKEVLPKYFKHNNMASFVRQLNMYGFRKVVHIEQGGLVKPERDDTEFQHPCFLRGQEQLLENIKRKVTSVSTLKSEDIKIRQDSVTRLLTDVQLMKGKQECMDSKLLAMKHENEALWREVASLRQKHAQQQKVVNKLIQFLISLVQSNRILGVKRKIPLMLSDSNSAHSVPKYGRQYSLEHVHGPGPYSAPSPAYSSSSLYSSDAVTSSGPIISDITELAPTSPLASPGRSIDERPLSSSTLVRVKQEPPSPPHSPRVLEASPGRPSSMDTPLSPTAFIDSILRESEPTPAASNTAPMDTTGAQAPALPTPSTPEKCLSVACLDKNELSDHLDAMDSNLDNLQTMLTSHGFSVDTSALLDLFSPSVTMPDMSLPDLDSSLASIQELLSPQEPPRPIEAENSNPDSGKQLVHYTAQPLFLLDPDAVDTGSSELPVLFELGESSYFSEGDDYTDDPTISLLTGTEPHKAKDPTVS

[2] = biological target: T2, Corticotropin-releasing factor receptor 2/Corticotropin-releasing factor-binding protein (Homo sapiens, UniProt P24387+Q13324); assay: activators of CRF receptor 2 with binding protein – uHTS hits, confirmation (AID 602473); type: functional; settings: read-out: EC50_Mean
T2 sequence (Q13324 whole entry): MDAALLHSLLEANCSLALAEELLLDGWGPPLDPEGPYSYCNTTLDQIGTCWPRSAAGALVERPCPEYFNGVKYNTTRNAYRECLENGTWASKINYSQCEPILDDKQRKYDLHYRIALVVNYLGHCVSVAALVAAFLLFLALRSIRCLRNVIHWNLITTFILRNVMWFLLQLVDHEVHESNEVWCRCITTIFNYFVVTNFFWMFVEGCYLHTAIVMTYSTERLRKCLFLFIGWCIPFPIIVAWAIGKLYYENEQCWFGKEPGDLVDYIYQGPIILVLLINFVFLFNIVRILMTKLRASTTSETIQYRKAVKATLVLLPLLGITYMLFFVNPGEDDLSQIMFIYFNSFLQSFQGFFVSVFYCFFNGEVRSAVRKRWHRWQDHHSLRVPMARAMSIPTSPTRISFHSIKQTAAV
T2 sequence (P24387 whole entry): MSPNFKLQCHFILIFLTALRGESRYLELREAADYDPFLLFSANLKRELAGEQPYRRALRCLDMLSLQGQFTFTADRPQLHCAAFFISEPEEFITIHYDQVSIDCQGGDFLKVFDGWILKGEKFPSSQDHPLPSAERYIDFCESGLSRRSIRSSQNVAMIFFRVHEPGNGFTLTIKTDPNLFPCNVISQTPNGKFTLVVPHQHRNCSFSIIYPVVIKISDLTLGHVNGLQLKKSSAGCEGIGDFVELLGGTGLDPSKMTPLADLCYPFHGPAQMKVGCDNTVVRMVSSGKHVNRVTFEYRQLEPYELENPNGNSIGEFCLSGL

[3] = biological target: T2, Corticotropin-releasing factor receptor 2/Corticotropin-releasing factor-binding protein; assay: Dose Response confirmation of uHTS hits for small molecule antagonists of the CRF-binding protein and CRF-R2 receptor complex.; type: functional; settings: read-out: IC50_Mean
[4] = biological target: T3, Rac GTPase-activating protein 1 (Homo sapiens, UniProt Q9H0H5); assay: blockers of MgcRacGAP-driven Rac1 GTP hydrolysis – biochemical, ADP Hunter fluorescence, primary and confirmatory, confirmation (AID 624330); type: functional
T3 sequence (Q9H0H5 whole entry): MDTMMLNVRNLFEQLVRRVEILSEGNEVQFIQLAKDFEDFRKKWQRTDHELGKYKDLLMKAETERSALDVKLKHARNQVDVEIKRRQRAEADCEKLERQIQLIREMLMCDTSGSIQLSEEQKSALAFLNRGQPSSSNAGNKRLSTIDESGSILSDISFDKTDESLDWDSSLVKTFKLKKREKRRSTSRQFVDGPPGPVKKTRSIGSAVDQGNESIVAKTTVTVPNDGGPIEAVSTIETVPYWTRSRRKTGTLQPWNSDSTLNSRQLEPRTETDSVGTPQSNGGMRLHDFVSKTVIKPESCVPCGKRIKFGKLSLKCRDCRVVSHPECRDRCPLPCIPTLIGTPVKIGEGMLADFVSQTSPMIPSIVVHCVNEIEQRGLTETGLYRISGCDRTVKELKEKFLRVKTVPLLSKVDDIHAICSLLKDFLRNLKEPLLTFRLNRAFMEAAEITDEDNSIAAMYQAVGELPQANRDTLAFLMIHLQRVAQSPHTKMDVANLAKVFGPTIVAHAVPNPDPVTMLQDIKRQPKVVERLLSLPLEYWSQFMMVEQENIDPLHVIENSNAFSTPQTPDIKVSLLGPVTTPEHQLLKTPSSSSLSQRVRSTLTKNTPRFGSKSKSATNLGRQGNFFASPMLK

[5] = biological target: T4, Cytochrome P450 1A2 (Homo sapiens, UniProt P05177);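 also: PubChem cytochrome P450 panel assay, CYP1A2 panel member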
T4 sequence (P05177 whole entry): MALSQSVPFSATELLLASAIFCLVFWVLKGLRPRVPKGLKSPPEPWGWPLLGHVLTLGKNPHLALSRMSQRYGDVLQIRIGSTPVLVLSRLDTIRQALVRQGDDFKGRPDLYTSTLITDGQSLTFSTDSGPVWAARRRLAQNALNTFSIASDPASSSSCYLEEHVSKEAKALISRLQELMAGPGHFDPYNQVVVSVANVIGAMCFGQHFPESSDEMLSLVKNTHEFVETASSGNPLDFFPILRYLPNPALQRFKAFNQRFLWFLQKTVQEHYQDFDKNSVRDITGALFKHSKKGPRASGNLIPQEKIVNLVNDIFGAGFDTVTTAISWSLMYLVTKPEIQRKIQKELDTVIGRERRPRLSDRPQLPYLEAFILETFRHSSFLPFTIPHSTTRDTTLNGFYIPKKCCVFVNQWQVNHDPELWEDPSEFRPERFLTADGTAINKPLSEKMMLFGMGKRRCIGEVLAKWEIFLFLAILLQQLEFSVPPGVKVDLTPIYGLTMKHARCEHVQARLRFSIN

SMILES	EC50 [1]	EC50 [2]	IC50 [3]	other results
CCCCOc1cccc(C2C(C(=O)c3cccs3)=C(O)C(=O)N2Cc2cccnc2)c1 (stereo not given)	> 195 µM (not active)			
COc1ccc(N2CCN(C(=O)CCS(=O)(=O)c3ccc4c(c3)NC(=O)CO4)CC2)cc1		> 53 µM (inactive)	> 47.1 µM (inactive)	
Cc1ccc(S(=O)(=O)N/N=C/c2c(C)nn(-c3ccccc3)c2C)cc1	> 195 µM (not active)			
Cc1cc(OCCCC(=O)Nc2cc(S(=O)(=O)N3CCOCC3)ccc2N2CCOCC2)ccc1Cl		> 53 µM (inactive)	> 47.1 µM (inactive)	
O=C(Nc1nc(-c2ccccc2)cs1)c1ccc2c(c1)S(=O)(=O)c1ccccc1C2=O		> 53 µM (inactive)	> 47.1 µM (inactive)	
Cc1ccccc1C(=O)NCC(=O)OC1CCCCC1=O (stereo not given)		> 53 µM (inactive)	> 47.1 µM (inactive)	
COc1cccc(OC)c1C(=O)N1CCN(Cc2cccnc2)CC1		> 53 µM (inactive)	> 47.1 µM (inactive)	IC50 [4]: 203 µM (active)
NCCCC(=O)O [GAMMA-AMINOBUTYRIC ACID]	> 195 µM (not active)			AC50 [5]: 31.6 µM (inconclusive)
CCN(c1ccccc1)S(=O)(=O)c1cc(NC(=O)CSc2nnc(O)nc2O)ccc1Cl		> 53 µM (inactive)	> 47.1 µM (inactive)	
COc1ccc(Nc2nc(Cl)nc(NCc3ccco3)n2)c(OC)c1		> 53 µM (inactive)	> 47.1 µM (inactive)	
CN1N=C2c3ccccc3CCC2C1c1ccc(C(F)(F)F)cc1 (stereo not given)	79.4 µM (active)			
COc1ccc(N2CCN(c3oc(Cc4ccccc4)nc3C#N)CC2)cc1	> 195 µM (not active)			
O=C(CC1CCCCC1)NCc1ccccn1	> 195 µM (not active)			
Cc1ccc(OCCC(=O)OCC(=O)Nc2ccc(N3CCOCC3)cc2)cc1	> 195 µM (not active)			
COc1cccc(N2CCN(C(S)=Nc3cc(C)cc(C)c3)CC2)c1	94.4 µM (active)			
CCOc1ccc2nc(NC(=O)/C=C/c3ccc4c(c3)OCO4)sc2c1	> 195 µM (not active)			
CCC(C)c1ccc(S(=O)(=O)N2CCN(CC(O)COCC3CCCO3)CC2)cc1 (stereo not given)		> 53 µM (inactive)	> 47.1 µM (inactive)	
Cc1ccc(CNC(=O)CCC(=O)c2cccs2)cc1		> 53 µM (inactive)	> 47.1 µM (inactive)	
COc1cc2c(cc1OC)C(/C=C(\O)c1ccc(C)cc1)=NCC2	> 195 µM (not active)			
CCCc1cc(=O)nc(SCC(=O)Nc2ccc(OC(F)F)cc2)[nH]1		> 53 µM (inactive)	> 47.1 µM (inactive)	
O=C1c2ccccc2-c2ncnc3c(N4CCOCC4)cc(N4CCOCC4)c1c23		> 53 µM (inactive)	> 47.1 µM (inactive)	
Cn1c2ccccc2c2cnn(CC(=O)N3CCC4(CC3)OCCO4)c(=O)c21	39.3 µM (active)			
